“Also recorded” adds a separate entry of the source.
Tested on: KCa3.1
Experiment: Whole cell patch clamp of FcεR1 stimulated KCa3.1 channel activity in BMMCs
Assay type: cell-based, mouse
Conditions: for rescue of FcεR1 stimulated KCa3.1 channel activity: TRIM27+/+ BMMC transfected with siRNA to PI3KC2β, phosphoinositide added to the pipette solution (PI3P 100 nM)
Method: Whole cell patch clamping was performed on TRIM27^+/+ and TRIM27^−/− BMMCs that were first sensitized overnight with anti-DNP IgE and then stimulated with DNP-HSA using conditions previously described (5). Briefly, the standard pipette solution contained 140 mM KCl, 2 mM MgCl2, 10 mM Hepes, 2 mM Na^+-ATP and 0.1 mM GTP, pH 7.3. The standard external solution contained 140 mM NaCl, 5 mM KCl, 2 mM CaCl2, 1 mM MgCl2 and 10 mM Hepes, pH 7.3. Whole-cell currents were recorded using an Axoclamp 200 B amplifier (Axon Instruments, Foster City, Calif., USA), and currents were evoked by applying voltage commands to a range of potentials in 10 mV steps from a holding potential of 20 mV. For measuring the membrane potential, ruptured patch was used in current clamp mode as described in (34).
To verify that PI3KC2β mediated activation of KCa3.1 via the generation of PI3P, PI3P (100 nM) was added into the pipette solution during patch clamping in BMMCs in which PI3KC2β was knocked down using siRNA (32). PI(3)P diC16 [C41H45Na3O16P2 (C6)] was purchased from Echelon Biosciences and used according to specifications at a concentration of 100 nM in the pipette solution.

Compound: PI(3,4,5)P3
- rescue of FcεR1 stimulated KCa3.1 channel activity: failed to rescue; also recorded: failure

Compound: CCCCCCCCCCCCCCCC(=O)OC[C@H](COP(=O)(O)O[C@@H]1[C@H](O)[C@H](OP(=O)(O)O)[C@@H](O)[C@H](O)[C@H]1O)OC(=O)CCCCCCCCCCCCCCC [PI3P, phosphatidylinositol 3 phosphate]
- rescue of FcεR1 stimulated KCa3.1 channel activity: restored
- rescue of KCa3.1 channel activity (TRIM27-/- BMMC transfected with siRNA to PI3KC2β, PI3P added to the pipette solution): rescue

Compound: PI4P
- rescue of FcεR1 stimulated KCa3.1 channel activity: failed to rescue
- rescue of FcεR1 stimulated KCa3.1 channel activity (listed as PI(4)P): failure

From patent US20150204846A1, “PHOSPHATIDYLINOSITOL-3-KINASE C2 BETA MODULATORS AND METHODS OF USE THEREOF” (NEW YORK UNIVERSITY, priority 2012, published 2015)
